Results as given in ChEMBL document CHEMBL1137828, “Spiroquinazolinones as novel, potent, and selective PDE7 inhibitors. Part 2: Optimization of 5,8-disubstituted derivatives” (Bioorg Med Chem Lett, 2004).
In brackets after ≈: the same amount, converted by molar mass.

Key:
Phosphodiesterase 1 [1] = target: T1, Phosphodiesterase 1 (Homo sapiens, UniProt P54750+Q01064+Q14123); experiment: Inhibition of human PDE1 partially purified from THP-1 cells; format: cell-free
[2] = target: cGMP-specific 3',5'-cyclic phosphodiesterase (Homo sapiens, UniProt O76074); experiment: Inhibition of human PDE5 partially purified from MCF-7 cells; format: cell-free, MCF7
[3] = target: cGMP-inhibited 3',5'-cyclic phosphodiesterase 3A (Homo sapiens, UniProt Q14432); experiment: Inhibition of human PDE3A3 expressed in baculovirus infected Sf9 cells
[4] = target: 3',5'-cyclic-AMP phosphodiesterase 4D (Homo sapiens, UniProt Q08499); experiment: Inhibition of human PDE4D3 expressed in baculovirus infected Sf9 cells
[5] = target: High affinity 3',5'-cyclic-AMP phosphodiesterase 7A (Homo sapiens, UniProt Q13946); experiment: Inhibition of human PDE7A1 expressed in baculovirus infected Sf9 cells
[6] = Solubility in HCl/KCl buffer at pH 1; format: physicochemical
[7] = Solubility in Na2HPO4/NaH2PO4 buffer at pH 7.4; format: physicochemical
[8] = Clearance in rats when administered at a dose of 0.5 mg/kg i.v.; format: ADME, organism-based; set-up: dose 0.5 mg/kg, route intravenous; details: rat, in vivo, iv
[9] = Half-life in rats after peroral administration of 2.5 mg/kg; format: ADME, organism-based; set-up: dose 2.5 mg/kg, route oral; details: rat, in vivo, po
[10] = Oral bioavailability in rat (dose 2.5 mg/kg); format: ADME, organism-based; details: in vivo
[11] = Volume of distribution in rats when administered at a dose of 0.5 mg/kg i.v.; format: ADME, organism-based; set-up: dose 0.5 mg/kg, route intravenous; details: rat, in vivo, iv
Phosphodiesterase 1 [12] = target: T1, Phosphodiesterase 1; experiment: Inhibition of human PDE1 expressed in baculovirus infected Sf9 cells

High affinity 3',5'-cyclic-AMP phosphodiesterase 7A, sequence (Q13946 whole entry): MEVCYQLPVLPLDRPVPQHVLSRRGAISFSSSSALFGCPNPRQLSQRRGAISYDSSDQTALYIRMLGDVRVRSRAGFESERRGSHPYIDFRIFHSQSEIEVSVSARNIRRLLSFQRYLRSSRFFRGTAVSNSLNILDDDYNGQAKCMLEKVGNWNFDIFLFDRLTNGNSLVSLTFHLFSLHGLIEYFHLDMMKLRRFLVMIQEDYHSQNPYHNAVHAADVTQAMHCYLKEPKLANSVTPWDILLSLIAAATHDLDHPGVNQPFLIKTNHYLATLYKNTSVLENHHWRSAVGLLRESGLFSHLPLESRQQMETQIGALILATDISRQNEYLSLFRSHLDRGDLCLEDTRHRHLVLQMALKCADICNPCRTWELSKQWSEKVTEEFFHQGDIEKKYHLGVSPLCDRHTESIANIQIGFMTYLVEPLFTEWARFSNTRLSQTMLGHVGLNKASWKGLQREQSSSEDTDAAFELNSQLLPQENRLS
cGMP-inhibited 3',5'-cyclic phosphodiesterase 3A, sequence (Q14432 whole entry): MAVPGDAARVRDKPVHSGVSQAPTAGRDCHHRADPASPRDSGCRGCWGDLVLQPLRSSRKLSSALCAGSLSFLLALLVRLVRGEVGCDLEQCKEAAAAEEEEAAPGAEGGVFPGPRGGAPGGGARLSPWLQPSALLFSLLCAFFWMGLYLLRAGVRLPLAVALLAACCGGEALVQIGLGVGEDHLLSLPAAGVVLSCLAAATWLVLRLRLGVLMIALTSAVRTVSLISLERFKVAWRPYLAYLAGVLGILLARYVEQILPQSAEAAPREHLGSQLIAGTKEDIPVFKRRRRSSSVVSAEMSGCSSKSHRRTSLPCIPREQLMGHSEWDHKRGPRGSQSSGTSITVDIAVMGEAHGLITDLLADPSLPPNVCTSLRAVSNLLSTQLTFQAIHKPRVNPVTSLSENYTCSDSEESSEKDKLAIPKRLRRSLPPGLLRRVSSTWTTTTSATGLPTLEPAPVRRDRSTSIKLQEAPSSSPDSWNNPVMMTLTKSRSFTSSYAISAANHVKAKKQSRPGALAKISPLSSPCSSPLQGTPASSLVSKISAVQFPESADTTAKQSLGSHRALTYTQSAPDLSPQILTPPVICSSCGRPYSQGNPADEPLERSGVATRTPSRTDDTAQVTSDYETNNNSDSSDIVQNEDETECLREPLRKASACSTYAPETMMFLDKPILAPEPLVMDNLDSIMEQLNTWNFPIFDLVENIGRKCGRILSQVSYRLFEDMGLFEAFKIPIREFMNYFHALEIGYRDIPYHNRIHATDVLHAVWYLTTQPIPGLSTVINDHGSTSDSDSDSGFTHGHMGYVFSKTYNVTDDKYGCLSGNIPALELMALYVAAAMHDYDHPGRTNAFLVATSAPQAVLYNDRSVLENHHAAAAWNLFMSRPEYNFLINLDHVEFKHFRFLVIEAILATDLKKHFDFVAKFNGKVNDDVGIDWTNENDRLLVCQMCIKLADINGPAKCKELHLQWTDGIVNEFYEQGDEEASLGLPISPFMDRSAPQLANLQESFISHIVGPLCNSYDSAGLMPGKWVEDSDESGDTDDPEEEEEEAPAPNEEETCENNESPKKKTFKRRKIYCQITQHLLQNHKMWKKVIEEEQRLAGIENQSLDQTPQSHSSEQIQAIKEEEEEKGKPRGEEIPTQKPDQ
3',5'-cyclic-AMP phosphodiesterase 4D, sequence (Q08499 whole entry): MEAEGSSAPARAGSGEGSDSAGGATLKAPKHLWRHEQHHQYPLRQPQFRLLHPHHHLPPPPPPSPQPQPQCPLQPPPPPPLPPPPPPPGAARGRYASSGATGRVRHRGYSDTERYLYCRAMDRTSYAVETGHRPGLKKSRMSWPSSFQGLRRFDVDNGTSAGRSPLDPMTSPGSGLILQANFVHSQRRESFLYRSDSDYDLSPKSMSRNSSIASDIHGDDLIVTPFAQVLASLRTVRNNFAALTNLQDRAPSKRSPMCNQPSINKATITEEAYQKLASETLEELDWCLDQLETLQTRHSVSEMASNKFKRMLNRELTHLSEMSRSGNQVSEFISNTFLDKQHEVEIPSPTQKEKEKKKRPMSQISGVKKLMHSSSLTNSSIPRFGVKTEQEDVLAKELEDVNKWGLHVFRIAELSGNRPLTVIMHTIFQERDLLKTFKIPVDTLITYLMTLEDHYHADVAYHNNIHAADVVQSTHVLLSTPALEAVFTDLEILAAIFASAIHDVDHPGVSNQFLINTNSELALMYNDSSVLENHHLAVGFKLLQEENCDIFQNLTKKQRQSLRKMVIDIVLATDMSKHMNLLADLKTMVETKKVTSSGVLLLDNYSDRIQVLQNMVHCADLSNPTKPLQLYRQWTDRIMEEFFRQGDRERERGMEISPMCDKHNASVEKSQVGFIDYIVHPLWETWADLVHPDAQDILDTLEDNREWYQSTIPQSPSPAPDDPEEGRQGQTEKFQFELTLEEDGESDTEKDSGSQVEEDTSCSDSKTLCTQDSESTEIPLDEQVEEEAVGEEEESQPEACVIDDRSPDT

Structure (SMILES)	IC50 (Phosphodiesterase 1 [1])	IC50 [2]	IC50 [3]	IC50 [4]	IC50 [5]	solubility [6]	solubility [7]	clearance [8]	half-life [9]	bioavailability [10]	Vd [11]	IC50 (Phosphodiesterase 1 [12])
O=C1Nc2c(Cl)ccc(OCc3noc(O)n3)c2C2(CCCCC2)N1	0.61 µM	> 101 µM	21.9 µM	0.82 µM	0.0035 µM	< 1 µg/mL	113 µg/mL (≈ 310 µM)					
O=C1Nc2c(Cl)ccc(OCCO)c2C2(CCCCC2)N1	10.5 µM	> 91 µM	> 73 µM	12.2 µM	0.05 µM	11 µg/mL (≈ 35.4 µM)	18 µg/mL (≈ 57.9 µM)	33.6 mL/min/kg	1.5 h	27%	1.41 L/kg	
CN(C)CC(O)COc1ccc(Cl)c2c1C1(CCCCC1)NC(=O)N2 (stereo unspecified)	> 101 µM	> 101 µM	> 101 µM	55 µM	0.4 µM	> 500 µg/mL	137 µg/mL (≈ 372 µM)					
NCCOCCOc1ccc(Cl)c2c1C1(CCCCC1)NC(=O)N2	> 101 µM	> 101 µM	> 101 µM	99 µM	1.62 µM	> 500 µg/mL	> 500 µg/mL					
CN(C)CCOc1ccc(Cl)c2c1C1(CCCCC1)NC(=O)N2	19 µM	74 µM	> 101 µM	3.28 µM	0.15 µM	> 500 µg/mL	195 µg/mL (≈ 577 µM)					
CNCCOc1ccc(Cl)c2c1C1(CCCCC1)NC(=O)N2	72.4 µM	> 101 µM	> 101 µM	53.2 µM	0.96 µM	> 500 µg/mL	> 500 µg/mL					
CN(C)CCCOc1ccc(Cl)c2c1C1(CCCCC1)NC(=O)N2	> 101 µM	98 µM	> 101 µM	23.7 µM	1.24 µM							
NCCOc1ccc(Cl)c2c1C1(CCCCC1)NC(=O)N2	33 µM	73.2 µM	> 101 µM	10.5 µM	1.04 µM	> 500 µg/mL	190 µg/mL (≈ 613 µM)					
O=C1Nc2c(Cl)cccc2C2(CCCCC2)N1					0.17 µM							
Cc1ccc(Cl)c2c1C1(CCCCC1)NC(=O)N2					0.1 µM							
CNCC(O)COc1ccc(Cl)c2c1C1(CCCCC1)NC(=O)N2 (stereo unspecified)	> 101 µM	> 101 µM	> 101 µM	12 µM	0.21 µM	> 500 µg/mL	> 500 µg/mL					

More lines, now with the values ahead:

IC50 (Phosphodiesterase 1 [1])	IC50 [2]	IC50 [3]	IC50 [4]	IC50 [5]	solubility [6]	solubility [7]	clearance [8]	half-life [9]	bioavailability [10]	Vd [11]	IC50 (Phosphodiesterase 1 [12])	Structure (SMILES)
				0.01 µM								O=C1Nc2c(Cl)ccc(O)c2C2(CCCCC2)N1
4.76 µM	> 101 µM	> 68 µM	15 µM	0.04 µM	1 µg/mL (≈ 3.08 µM)	> 500 µg/mL	39.4 mL/min/kg	1.4 h	21%	1.04 L/kg		O=C(O)COc1ccc(Cl)c2c1C1(CCCCC1)NC(=O)N2
5.86 µM	> 101 µM	94 µM	1.7 µM	0.02 µM	4 µg/mL (≈ 13.1 µM)	4 µg/mL (≈ 13.1 µM)						N#CCOc1ccc(Cl)c2c1C1(CCCCC1)NC(=O)N2
	> 88 µM	11.8 µM	0.32 µM	0.004 µM	< 1 µg/mL	345 µg/mL (≈ 989 µM)					0.32 µM	O=C1Nc2c(Cl)ccc(OCc3nn[nH]n3)c2C2(CCCCC2)N1
				0.01 µM								COc1ccc(Cl)c2c1C1(CCCCC1)NC(=O)N2
29 µM	> 101 µM	> 101 µM	7.35 µM	0.03 µM	> 500 µg/mL	4 µg/mL (≈ 10.5 µM)	62.8 mL/min/kg	0.32 h	3.7%	1.02 L/kg		O=C1Nc2c(Cl)ccc(OCCN3CCOCC3)c2C2(CCCCC2)N1
2.98 µM	80 µM	78 µM	1.02 µM	0.01 µM								CCOC(=O)c1ccc(COc2ccc(Cl)c3c2C2(CCCCC2)NC(=O)N3)o1
0.65 µM	60 µM	12.7 µM	2.41 µM	0.01 µM	> 500 µg/mL	> 500 µg/mL						O=C1Nc2c(Cl)ccc(OCCCS(=O)(=O)O)c2C2(CCCCC2)N1
29.7 µM	> 101 µM	> 101 µM	14.7 µM	0.04 µM	> 500 µg/mL	230 µg/mL (≈ 625 µM)	39.9 mL/min/kg	2.7 h	6.5%	0.47 L/kg		O=C(O)CNCCOc1ccc(Cl)c2c1C1(CCCCC1)NC(=O)N2
1.6 µM	> 101 µM	10.8 µM	1.13 µM	0.016 µM	< 1 µg/mL	100 µg/mL (≈ 256 µM)						O=C1Nc2c(Cl)ccc(OCc3ccc(C(=O)O)o3)c2C2(CCCCC2)N1
				0.01 µM								O=C1Nc2c(Cl)ccc(Cl)c2C2(CCCCC2)N1
